Values belong to the molecule of their own block, whether it stands above or below them.
Columns and labels:
[1] = target: 3',5'-cyclic-AMP phosphodiesterase 4D (Homo sapiens, UniProt Q08499); assay: Inhibition of PDE4D2 catalytic domain (86 to 413 residues) (unknown origin) using [3H]-cAMP as substrate after 15 mins by liquid scintillation counting method
[2] = target: Dual specificity calcium/calmodulin-dependent 3',5'-cyclic nucleotide phosphodiesterase 1B (Homo sapiens, UniProt Q01064); assay: Inhibition of PDE1B2 catalytic domain (10 to 487 residues) (unknown origin) using [3H]-cGMP/[3H]-cAMP as substrate after 15 mins by liquid scintillation counting method
Sequence of Dual specificity calcium/calmodulin-dependent 3',5'-cyclic nucleotide phosphodiesterase 1B (Q01064 whole entry, the tested form may be a part): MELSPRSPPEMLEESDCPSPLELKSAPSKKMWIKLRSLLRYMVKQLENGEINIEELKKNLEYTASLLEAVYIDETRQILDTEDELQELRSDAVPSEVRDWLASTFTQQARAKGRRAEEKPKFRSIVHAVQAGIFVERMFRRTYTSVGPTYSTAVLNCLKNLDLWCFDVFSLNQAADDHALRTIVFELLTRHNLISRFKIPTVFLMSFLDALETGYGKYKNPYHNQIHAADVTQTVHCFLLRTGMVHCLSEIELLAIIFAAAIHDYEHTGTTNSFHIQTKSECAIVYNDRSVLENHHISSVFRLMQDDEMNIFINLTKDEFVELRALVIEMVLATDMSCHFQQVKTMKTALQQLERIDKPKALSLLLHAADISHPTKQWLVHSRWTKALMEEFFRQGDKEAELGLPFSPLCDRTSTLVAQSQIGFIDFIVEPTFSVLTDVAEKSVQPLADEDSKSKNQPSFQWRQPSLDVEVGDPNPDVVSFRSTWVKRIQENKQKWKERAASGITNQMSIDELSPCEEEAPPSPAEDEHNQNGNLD

[3] = target: cGMP-dependent 3',5'-cyclic phosphodiesterase (Homo sapiens, UniProt O00408); assay: Inhibition of PDE2A3 catalytic domain (222 to 904 residues) (unknown origin) using [3H]-cGMP/[3H]-cAMP as substrate after 15 mins by liquid scintillation counting method
Sequence of cGMP-dependent 3',5'-cyclic phosphodiesterase (O00408 whole entry, the tested form may be a part): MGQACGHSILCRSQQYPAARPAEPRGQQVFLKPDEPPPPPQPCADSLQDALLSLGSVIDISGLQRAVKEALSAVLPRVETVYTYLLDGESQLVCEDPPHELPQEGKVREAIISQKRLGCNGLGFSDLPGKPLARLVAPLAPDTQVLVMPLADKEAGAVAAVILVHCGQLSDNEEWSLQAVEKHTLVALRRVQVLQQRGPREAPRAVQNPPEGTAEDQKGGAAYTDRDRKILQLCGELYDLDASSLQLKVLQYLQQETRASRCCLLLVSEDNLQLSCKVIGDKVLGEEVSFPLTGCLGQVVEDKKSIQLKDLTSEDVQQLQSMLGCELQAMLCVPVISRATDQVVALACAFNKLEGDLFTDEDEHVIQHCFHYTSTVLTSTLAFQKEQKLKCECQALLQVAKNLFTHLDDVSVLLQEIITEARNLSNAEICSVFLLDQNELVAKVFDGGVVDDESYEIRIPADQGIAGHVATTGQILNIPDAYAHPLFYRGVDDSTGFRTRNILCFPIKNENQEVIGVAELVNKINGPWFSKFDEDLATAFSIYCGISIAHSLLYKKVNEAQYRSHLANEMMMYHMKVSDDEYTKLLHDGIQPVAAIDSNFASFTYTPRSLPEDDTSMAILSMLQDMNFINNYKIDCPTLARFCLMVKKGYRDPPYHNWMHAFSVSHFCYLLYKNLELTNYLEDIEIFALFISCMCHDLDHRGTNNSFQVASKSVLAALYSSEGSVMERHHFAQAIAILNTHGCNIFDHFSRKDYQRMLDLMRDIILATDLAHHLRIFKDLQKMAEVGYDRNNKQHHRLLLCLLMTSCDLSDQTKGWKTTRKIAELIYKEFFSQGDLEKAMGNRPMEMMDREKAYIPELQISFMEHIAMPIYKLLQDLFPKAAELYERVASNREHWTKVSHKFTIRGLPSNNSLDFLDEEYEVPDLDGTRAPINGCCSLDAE

[4] = target: cGMP-specific 3',5'-cyclic phosphodiesterase (Homo sapiens, UniProt O76074); assay: Inhibition of PDE5A1 catalytic domain (535 to 860 residues) (unknown origin) using [3H]-cGMP as substrate after 15 mins by liquid scintillation counting method
[5] = target: High affinity cGMP-specific 3',5'-cyclic phosphodiesterase 9A (Homo sapiens, UniProt O76083); assay: Inhibition of PDE9A2 catalytic domain (181 to 506 residues) (unknown origin) using [3H]-cGMP/[3H]-cAMP as substrate after 15 mins by liquid scintillation counting method
Sequence of High affinity cGMP-specific 3',5'-cyclic phosphodiesterase 9A (O76083 whole entry, the tested form may be a part): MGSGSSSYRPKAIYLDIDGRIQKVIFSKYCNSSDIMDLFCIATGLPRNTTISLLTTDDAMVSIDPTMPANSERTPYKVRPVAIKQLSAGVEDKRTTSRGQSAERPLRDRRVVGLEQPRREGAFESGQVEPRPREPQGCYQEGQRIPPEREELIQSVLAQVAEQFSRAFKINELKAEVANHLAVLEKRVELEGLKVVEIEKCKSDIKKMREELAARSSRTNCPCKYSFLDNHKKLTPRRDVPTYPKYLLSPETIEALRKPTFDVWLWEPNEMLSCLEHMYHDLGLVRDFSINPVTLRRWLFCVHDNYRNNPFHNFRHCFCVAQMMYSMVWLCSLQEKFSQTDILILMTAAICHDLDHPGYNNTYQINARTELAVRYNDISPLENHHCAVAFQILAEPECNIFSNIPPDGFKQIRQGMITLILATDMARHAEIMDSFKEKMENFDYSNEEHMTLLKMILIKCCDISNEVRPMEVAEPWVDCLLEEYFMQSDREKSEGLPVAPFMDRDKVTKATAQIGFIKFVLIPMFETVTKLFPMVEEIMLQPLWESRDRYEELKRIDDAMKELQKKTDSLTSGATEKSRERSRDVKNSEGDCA

[6] = target: cAMP and cAMP-inhibited cGMP 3',5'-cyclic phosphodiesterase 10A (Homo sapiens, UniProt Q9Y233); assay: Inhibition of PDE10A2 catalytic domain (448 to 789 residues) (unknown origin) using [3H]-cGMP/[3H]-cAMP as substrate after 15 mins by liquid scintillation counting method
Sequence of cAMP and cAMP-inhibited cGMP 3',5'-cyclic phosphodiesterase 10A (Q9Y233 whole entry, the tested form may be a part): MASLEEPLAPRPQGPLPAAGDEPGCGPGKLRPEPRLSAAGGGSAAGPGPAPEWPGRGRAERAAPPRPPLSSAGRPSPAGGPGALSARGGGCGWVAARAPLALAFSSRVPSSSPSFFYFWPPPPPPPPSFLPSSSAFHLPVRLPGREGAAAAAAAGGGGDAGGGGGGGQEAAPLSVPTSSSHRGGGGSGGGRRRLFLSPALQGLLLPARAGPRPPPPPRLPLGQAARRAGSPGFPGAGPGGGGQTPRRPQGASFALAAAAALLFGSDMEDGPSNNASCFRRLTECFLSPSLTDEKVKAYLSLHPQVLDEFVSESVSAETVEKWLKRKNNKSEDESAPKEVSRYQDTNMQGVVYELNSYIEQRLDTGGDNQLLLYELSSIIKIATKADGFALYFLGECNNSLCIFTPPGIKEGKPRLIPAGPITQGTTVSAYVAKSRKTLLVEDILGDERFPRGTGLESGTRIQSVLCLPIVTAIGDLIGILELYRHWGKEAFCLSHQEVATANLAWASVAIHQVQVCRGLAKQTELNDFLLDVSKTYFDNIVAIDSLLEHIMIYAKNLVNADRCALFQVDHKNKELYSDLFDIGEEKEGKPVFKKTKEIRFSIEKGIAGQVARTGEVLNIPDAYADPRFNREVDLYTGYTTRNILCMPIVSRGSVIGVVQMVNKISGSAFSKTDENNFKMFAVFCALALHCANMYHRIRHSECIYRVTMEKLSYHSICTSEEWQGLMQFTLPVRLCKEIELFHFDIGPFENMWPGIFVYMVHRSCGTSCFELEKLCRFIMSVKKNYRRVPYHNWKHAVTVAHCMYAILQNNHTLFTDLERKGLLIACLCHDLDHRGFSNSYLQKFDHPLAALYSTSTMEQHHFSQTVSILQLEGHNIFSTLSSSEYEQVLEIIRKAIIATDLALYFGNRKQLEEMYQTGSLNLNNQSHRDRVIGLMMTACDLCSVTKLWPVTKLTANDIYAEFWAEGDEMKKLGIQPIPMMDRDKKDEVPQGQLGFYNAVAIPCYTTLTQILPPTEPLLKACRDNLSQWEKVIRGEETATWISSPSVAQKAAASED

Homo sapiens [7] = species: Homo sapiens; assay: Selectivity index, ratio of IC50 for PDE1B2 catalytic domain (10 to 487 residues) (unknown origin) to IC50 for PDE4D2 catalytic domain (86 to 413 residues) (unknown origin)
Homo sapiens [8] = species: Homo sapiens; assay: Selectivity index, ratio of IC50 for PDE2A3 catalytic domain (222 to 904 residues) (unknown origin) to IC50 for PDE4D2 catalytic domain (86 to 413 residues) (unknown origin)
Homo sapiens [9] = species: Homo sapiens; assay: Selectivity index, ratio of IC50 for PDE5A1 catalytic domain (535 to 860 residues) (unknown origin) to IC50 for PDE4D2 catalytic domain (86 to 413 residues) (unknown origin)
Homo sapiens [10] = species: Homo sapiens; assay: Selectivity index, ratio of IC50 for PDE9A2 catalytic domain (181 to 506 residues) (unknown origin) to IC50 for PDE4D2 catalytic domain (86 to 413 residues) (unknown origin)
Homo sapiens [11] = species: Homo sapiens; assay: Selectivity index, ratio of IC50 for PDE10A2 catalytic domain (448 to 789 residues) (unknown origin) to IC50 for PDE4D2 catalytic domain (86 to 413 residues) (unknown origin)

Sequence of 3',5'-cyclic-AMP phosphodiesterase 4D (Q08499 whole entry, the tested form may be a part): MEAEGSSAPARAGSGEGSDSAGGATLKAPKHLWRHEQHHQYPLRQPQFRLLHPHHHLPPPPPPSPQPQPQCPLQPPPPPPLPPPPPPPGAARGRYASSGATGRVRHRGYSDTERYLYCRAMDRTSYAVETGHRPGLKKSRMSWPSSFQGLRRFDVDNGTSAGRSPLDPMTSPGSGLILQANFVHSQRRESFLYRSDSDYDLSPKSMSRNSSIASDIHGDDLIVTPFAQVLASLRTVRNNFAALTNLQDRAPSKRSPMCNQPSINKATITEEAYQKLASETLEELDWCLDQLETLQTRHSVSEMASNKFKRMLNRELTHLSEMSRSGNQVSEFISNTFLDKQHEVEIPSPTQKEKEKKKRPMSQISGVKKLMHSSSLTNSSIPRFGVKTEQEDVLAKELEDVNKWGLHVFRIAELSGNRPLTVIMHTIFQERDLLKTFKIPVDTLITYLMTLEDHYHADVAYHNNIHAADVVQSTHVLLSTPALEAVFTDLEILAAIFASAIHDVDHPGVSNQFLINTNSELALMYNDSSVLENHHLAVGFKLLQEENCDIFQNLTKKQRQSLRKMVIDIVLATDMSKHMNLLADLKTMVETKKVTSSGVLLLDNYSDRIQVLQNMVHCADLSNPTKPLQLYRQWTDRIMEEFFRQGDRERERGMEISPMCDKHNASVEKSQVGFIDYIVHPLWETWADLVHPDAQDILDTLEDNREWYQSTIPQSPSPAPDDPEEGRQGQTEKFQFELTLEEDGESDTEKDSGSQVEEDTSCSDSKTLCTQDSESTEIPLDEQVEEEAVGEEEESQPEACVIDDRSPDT

IC50 [1]: 0.542 µM
Structure (SMILES): C=C1CC[C@]2(C(=O)O)CC[C@]3(C)C(=CC[C@@H]4[C@@]5(C)C[C@@H](O)[C@@H](OC(=O)/C=C\c6ccc(O)cc6)C(C)(C)[C@@H]5CC[C@]43C)[C@@H]2[C@H]1C

IC50 [1]: 0.245 µM | IC50 [2]: 2.63 µM | IC50 [3]: > 50 µM | IC50 [4]: 3.81 µM | IC50 [5]: 4.83 µM | IC50 [6]: > 20 µM | Ratio IC50 (Homo sapiens [7]): 11 | Ratio IC50 (Homo sapiens [8]): > 204 | Ratio IC50 (Homo sapiens [9]): 16 | Ratio IC50 (Homo sapiens [10]): 20 | Ratio IC50 (Homo sapiens [11]): > 82
Structure (SMILES): C=C1CC[C@]2(C(=O)O)CC[C@]3(C)C(=CC[C@@H]4[C@@]5(C)C[C@@H](O)[C@@H](OC(=O)/C=C/c6ccc(O)cc6)C(C)(C)[C@@H]5CC[C@]43C)[C@@H]2[C@H]1C

IC50 [1]: > 20 µM
Structure (SMILES): COc1cc(CCCO)cc(OC)c1O

IC50 [1]: > 20 µM
Structure (SMILES): COc1cc([C@H]2c3c(cc(OC)c(O)c3OC)C[C@@H](CO)[C@@H]2CO[C@@H]2OC[C@@H](O)[C@H](O)[C@H]2O)cc(OC)c1O [LYONISIDE]

IC50 [1]: > 20 µM
Structure (SMILES): CC1=CC(=O)CC(C)(C)[C@]1(O)/C=C/[C@@H](C)O

IC50 [1]: > 20 µM
Structure (SMILES): COc1cc([C@@H]2Oc3c(OC)cc(CCCO)cc3[C@H]2CO[C@@H]2OC[C@@H](O)[C@H](O)[C@H]2O)ccc1O

IC50 [1]: > 20 µM
Structure (SMILES): COc1cc([C@H]2c3cc(O)c(OC)cc3C[C@@H](CO)[C@@H]2CO[C@@H]2OC[C@@H](O)[C@H](O)[C@H]2O)ccc1O

IC50 [1]: > 20 µM
Structure (SMILES): C=C1CC[C@]2(C(=O)O)CC[C@]3(C)C(=CC[C@@H]4[C@@]5(C)C[C@@H](O)[C@@H](O)C(C)(C)[C@@H]5CC[C@]43C)[C@@H]2[C@H]1C

IC50 [1]: > 20 µM
Structure (SMILES): COc1cc([C@H]2Oc3c(OC)cc(CCCO)cc3[C@@H]2CO[C@@H]2OC[C@@H](O)[C@H](O)[C@H]2O)ccc1O

From ChEMBL document CHEMBL3792327, “Discovery and modelling studies of natural ingredients from Gaultheria yunnanensis (FRANCH.) against phosphodiesterase-4” (Eur J Med Chem, 2016)
